Assay results reported in the NIST ThermoML archive (doi:10.1016/j.jct.2016.11.017).
Numbers after ± are expanded uncertainties.

Assays:
[1] = Molar enthalpy of transition or fusion; conditions: Crystal; DSC
[2] = Crystal; DTA

| Molar enthalpy of transition or fusion [1] [kcal/mol] | Normal melting temperature [2] [°C] | Structure (SMILES) |
| --- | --- | --- |
| 10.2 ± 0.287 | 280.1 ± 0.4 | C[C@]12CC[C@@H]3c4ccc(O)cc4CC[C@H]3[C@@H]1C[C@@H](O)[C@@H]2O [Estriol] |
| 12.5 ± 0.335 | 201.2 ± 0.4 | C[C@@H]1CC[C@@]2(OC1)O[C@H]1C[C@H]3[C@@H]4CC=C5C[C@@H](O)CC[C@]5(C)[C@H]4CC[C@]3(C)[C@H]1[C@@H]2C [Diosgenin] |
